Measured values from patent US9586951B2 (FUJIFILM Corporation, priority 2013, dated 2017).

The compounds below were run against T1, ATM (Homo sapiens, UniProt Q13315) (assay: ATM inhibition test (phosphorylation of Chk2 generated by ionizing radiation, AlphaScreen SureFire)). Settings: phosphorylated Chk2 in NCI-H460 cells, ionizing radiation 8Gy, 1 hour after test compound treatment; read-out: ATM inhibitory activity.
T1 construct: detecting phosphorylation of Chk2 in a human non-small cell lung cancer cell line NCI-H460 (ATCC company); host or cells: NCI-H460 human non-small cell lung cancer cells
Assay type: cell-based
Method: ATM inhibitory effects of a test compound were measured by detecting phosphorylation of Chk2 in a human non-small cell lung cancer cell line NCI-H460 (ATCC company). The level of phosphorylated Chk2 generated by an ionizing radiation was measured using AlphaScreen SureFire (TGR Biosciences).
The cells were seeded by 40000 cells per well in 96-well CellBIND® plates (Corning International Inc.), and incubated at 37° C. overnight in 5% CO2. […] 1 hour after a test compound treatment, half of the plates were irradiated with ionizing radiation 8Gy (Faxitron Bioptics, LLC, RX-650 type). The plates irradiated with ionizing radiation and the plates not being irradiated with ionizing radiation were incubated at 37° C. for 1 hour in 5% CO2. […] Subsequent operations were performed according to the instruction book of AlphaScreen SureFire. […] The inhibition ratio was calculated by the following equation. Inhibition ratio (%)=((signal of drug untreated wells in the plates irradiated with ionizing radiation−signal of drug treated wells in the plates irradiated with ionizing radiation)/(signal of drug untreated wells in the plates irradiated with ionizing radiation−signal of drug untreated wells in the plates not being irradiated with ionizing radiation))×100

T1 sequence (Q13315 whole entry): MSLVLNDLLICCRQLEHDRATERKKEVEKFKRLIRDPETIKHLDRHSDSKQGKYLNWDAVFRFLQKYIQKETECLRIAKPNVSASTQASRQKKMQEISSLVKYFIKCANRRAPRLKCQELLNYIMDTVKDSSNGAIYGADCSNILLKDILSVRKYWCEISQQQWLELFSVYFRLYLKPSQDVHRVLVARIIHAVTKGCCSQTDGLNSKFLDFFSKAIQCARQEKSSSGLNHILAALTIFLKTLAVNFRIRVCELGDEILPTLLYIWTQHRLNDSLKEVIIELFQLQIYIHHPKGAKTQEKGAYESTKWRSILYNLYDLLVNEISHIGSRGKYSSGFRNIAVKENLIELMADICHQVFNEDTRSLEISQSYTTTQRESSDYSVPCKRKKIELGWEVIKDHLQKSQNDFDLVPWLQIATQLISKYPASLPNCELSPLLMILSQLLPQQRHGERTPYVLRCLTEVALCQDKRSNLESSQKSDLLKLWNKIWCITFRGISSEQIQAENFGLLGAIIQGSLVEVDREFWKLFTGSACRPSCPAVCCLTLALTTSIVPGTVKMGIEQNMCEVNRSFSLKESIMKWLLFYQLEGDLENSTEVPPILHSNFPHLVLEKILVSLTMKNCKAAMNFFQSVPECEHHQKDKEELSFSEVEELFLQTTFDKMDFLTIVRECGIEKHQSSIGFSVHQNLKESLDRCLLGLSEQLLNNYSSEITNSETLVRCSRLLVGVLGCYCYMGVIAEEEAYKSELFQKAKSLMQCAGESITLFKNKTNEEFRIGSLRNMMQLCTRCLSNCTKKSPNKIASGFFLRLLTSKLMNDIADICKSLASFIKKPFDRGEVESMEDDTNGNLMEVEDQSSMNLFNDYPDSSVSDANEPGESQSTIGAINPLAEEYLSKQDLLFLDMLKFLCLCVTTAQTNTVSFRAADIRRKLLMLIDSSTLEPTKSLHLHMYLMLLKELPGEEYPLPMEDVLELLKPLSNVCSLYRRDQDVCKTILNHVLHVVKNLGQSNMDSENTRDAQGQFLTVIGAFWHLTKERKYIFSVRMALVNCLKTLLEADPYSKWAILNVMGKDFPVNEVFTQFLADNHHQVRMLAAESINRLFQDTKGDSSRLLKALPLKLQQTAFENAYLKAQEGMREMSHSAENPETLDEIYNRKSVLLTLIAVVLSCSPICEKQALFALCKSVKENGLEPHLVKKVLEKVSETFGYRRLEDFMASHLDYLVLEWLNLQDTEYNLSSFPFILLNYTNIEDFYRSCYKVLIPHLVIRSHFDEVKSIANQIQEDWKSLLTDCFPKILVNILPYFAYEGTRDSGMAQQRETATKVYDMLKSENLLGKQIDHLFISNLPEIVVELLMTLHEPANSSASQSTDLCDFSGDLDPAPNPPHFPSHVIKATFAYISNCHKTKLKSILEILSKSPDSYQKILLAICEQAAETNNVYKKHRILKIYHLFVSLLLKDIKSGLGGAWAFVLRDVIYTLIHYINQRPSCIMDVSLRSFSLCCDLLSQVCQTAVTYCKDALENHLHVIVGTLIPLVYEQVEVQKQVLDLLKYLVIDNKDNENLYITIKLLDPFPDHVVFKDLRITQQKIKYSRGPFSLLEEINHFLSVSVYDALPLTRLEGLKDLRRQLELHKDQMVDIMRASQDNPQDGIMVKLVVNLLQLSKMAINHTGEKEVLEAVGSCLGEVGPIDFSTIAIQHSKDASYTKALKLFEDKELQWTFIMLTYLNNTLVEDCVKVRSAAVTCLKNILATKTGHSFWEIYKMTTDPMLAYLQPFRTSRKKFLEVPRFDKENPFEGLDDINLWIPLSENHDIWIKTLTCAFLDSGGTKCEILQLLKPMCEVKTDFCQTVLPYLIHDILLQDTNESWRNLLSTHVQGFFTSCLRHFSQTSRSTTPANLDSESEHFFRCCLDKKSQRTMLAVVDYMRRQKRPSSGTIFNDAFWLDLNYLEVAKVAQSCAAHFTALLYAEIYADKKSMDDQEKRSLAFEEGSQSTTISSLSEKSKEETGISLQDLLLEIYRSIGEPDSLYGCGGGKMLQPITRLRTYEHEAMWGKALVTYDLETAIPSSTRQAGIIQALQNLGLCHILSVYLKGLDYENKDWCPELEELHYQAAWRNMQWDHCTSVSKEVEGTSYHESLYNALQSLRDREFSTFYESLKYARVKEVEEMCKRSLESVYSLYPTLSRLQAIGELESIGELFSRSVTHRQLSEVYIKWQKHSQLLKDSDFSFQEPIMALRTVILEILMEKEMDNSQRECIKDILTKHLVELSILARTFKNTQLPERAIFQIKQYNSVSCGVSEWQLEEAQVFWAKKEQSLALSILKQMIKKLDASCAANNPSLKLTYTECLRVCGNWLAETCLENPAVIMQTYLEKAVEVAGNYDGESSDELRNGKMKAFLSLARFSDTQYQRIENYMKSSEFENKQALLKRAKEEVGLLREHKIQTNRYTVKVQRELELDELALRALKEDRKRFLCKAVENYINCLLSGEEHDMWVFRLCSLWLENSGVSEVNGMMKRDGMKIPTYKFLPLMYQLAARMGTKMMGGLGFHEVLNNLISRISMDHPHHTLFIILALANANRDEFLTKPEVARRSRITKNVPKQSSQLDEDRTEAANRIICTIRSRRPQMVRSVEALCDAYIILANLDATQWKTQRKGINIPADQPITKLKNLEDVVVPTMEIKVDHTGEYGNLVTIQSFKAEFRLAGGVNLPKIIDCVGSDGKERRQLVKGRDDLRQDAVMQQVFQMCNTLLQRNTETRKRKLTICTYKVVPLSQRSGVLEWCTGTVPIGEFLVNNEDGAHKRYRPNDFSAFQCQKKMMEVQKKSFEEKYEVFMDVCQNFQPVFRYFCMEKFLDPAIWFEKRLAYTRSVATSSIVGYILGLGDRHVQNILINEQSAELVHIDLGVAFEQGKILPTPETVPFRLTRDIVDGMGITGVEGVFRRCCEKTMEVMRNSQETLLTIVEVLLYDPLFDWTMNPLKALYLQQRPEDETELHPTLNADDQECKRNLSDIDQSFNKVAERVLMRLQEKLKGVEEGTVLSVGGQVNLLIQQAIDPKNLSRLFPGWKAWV

COc1ccc(CCN2CCC(Nc3ccc4c(c3)Cc3ccc(F)c(-c5cc(N6CCOCC6)cc(=O)[nH]5)c3O4)CC2)cc1 [Example 2-47, 6-(3-Fluoro-7-((1-(4-methoxyphenethyl)piperidin-4-yl)amino)-9H-xanthen-4-yl)-4-morpholinopyridin-2(1H)-one] was tested. Which IC50 did it give?
Its IC50 is 100 to 500 nM.

With CCC(Nc1ccc2c(c1)Sc1cccc(-c3cc(N4CCOCC4)cc(=O)[nH]3)c1S2)[C@H](CC)N1CCOCC1 (stereo partly drawn) [Example 1-21-4, 4-Morpholino-6-(7-(((4S)-4-morpholinohexan-3-yl)amino)thianthren-1-yl) pyridin-2(1H)-one] as the compound, how does the IC50 read?
Its IC50 is 100 to 500 nM.

Cc1cnc(C(COCCN(C)C)Nc2ccc3c(c2)Sc2cccc(-c4cc(N5CCOCC5)cc(=O)[nH]4)c2S3)nc1 (stereo not drawn) [Example 1-12-104, 6-(7-((2-(2-(Dimethylamino)ethoxy)-1-(5-methylpyrimidin-2-yl)ethyl)amino)thianthren-1-yl)-4-morpholino pyridin-2(1H)-one] was tested. Which IC50 did it give?
Its IC50 is 100 to 500 nM.

Which IC50 does the source give for COCCN(C)CCC(Nc1ccc2c(c1)Sc1cccc(-c3cc(N4CCOCC4)cc(=O)[nH]3)c1S2)c1cnc(C)cn1 (single isomer, unassigned) [Example 10-3-4, 6-(7-((3-((2-Methoxyethyl) (methyl)amino)-1-(5-methylpyrazin-2-yl)propyl)amino)thianthren-1-yl)-4-morpholino pyridin-2(1H)-one] here?
Its IC50 is under 100 nM.

Which IC50 does the source give for COc1ccncc1CNc1ccc2c(c1)Sc1cccc(-c3cc(N4CCOCC4)cc(=O)[nH]3)c1O2 [Example 4-8-10, 6-(8-(((4-Methoxypyridin-3-yl)methyl)amino)phenoxathiin-4-yl)-4-morpholino pyridin-2(1H)-one] here?
Its IC50 is 100 to 500 nM.

For O=c1cc(N2CCOCC2)cc(-c2cccc3c2Oc2ccc(NCc4ccnc(N5CCOCC5)n4)cc2C3)[nH]1 [Example 2-14-69, 4-Morpholino-6-(7-(((2-morpholinopyrimidin-4-yl)methyl)amino)-9H-xanthen-4-yl)pyridin-2(1H)-one], which IC50 is on record?
The IC50 was 100 to 500 nM.

CC(Nc1ccc2c(c1)Sc1cccc(-c3cc(N4CCOCC4)cc(=O)[nH]3)c1S2)C1CC1 (stereo not drawn) [Example 1-12-43, 6-(7-((1-Cyclopropylethyl)araino)thianthren-1-yl)-4-morpholino pyridin-2(1H)-onc] was tested. Which IC50 did it give?
Its IC50 is 500 to 2000 nM.

For CC(Nc1ccc2c(c1)Cc1cccc(-c3cc(N4CCOCC4)cc(=O)[nH]3)c1O2)c1cc(C#N)ncn1 (stereo not drawn) [Example 2-14-60, 6-(1-((5-(4-Morpholino-6-oxo-1,6-dihydropyridin-2-yl)-9H-xanthen-2-yl)amino)ethyl)pyrimidine-4-carbonitrile], which IC50 is on record?
The IC50 was 100 to 500 nM.

Which IC50 does the source give for Cc1ccnc(CNc2ccc3c(c2)Cc2ccnc(-c4cc(N5CCOCC5)cc(=O)[nH]4)c2O3)c1 [Example 2-41-7, 6-(7-(((4-Methylpyridin-2-yl)methyl)amino)-5H-chromeno [2,3-c]pyridin-1-yl)-4-morpholino pyridin-2(1H)-one] here?
Its IC50 is 100 to 500 nM.

Which IC50 does the source give for Cc1cnc(C(CF)Nc2ccc3c(c2)Cc2cccc(-c4cc(N5CCOCC5)cc(=O)[nH]4)c2O3)nc1 (stereo not drawn) [Example 2-14-83, 6-(7-((2-Fluoro-1-(5-methylpyrimidin-2-yl)ethyl)amino)-9H-xanthen-4-yl)-4-morpholino pyridin-2(1H)-one] here?
Its IC50 is 100 to 500 nM.

With Nc1ncc(CNc2ccc3c(c2)Cc2cccc(-c4cc(N5CCOCC5)cc(=O)[nH]4)c2O3)cn1 [Example 2-2-15, 6-(7-(((2-Aminopyrimidin-5-yl)methyl)amino)-9H-xanthen-4-yl)-4-morpholino pyridin-2(1H)-one] as the compound, how does the IC50 read?
Its IC50 is 500 to 2000 nM.

How did the IC50 turn out when O=c1cc(N2CCOCC2)cc(-c2cccc3c2Oc2ccc(NCc4cccc(C5CC5)n4)cc2S3)[nH]1 [Example 4-4-21, 6-(8-(((6-Cyclopropylpyridin-2-yl)methyl)amino)phenoxathiin-4-yl)-4-morpholino pyrdin-2(1H)-one] was run?
The IC50 was 100 to 500 nM.

With COc1ccc(CCN2CCCC(Nc3ccc4c(c3)Sc3cccc(-c5cc(N6CCOCC6)cc(=O)[nH]5)c3O4)CC2)cc1 (stereo not drawn) [Example 4-7, 6-(8-((1-(4-Methoxyphenethyl)azepan-4-yl)amino)phenoxathiin-4-yl)-4-morpholinopyridin-2(1H)-one] as the compound, how does the IC50 read?
The IC50 was 100 to 500 nM.

With COC[C@H](CN1[C@H](C)CCC[C@@H]1C)Nc1ccc2c(c1)Sc1cccc(-c3cc(N4CCOCC4)cc(=O)[nH]3)c1S2 [Example 1-46-13, 6-(7-(((S)-1-((2R,6S)-2,6- Dimethylpiperidin-1-yl)-3-methoxypropan-2-yl)amino)thianthren-1-yl)-4-morpholino pyridin-2(1H)-one] as the compound, how does the IC50 read?
The IC50 was 100 to 500 nM.

With Cc1cccc(CCN2CCC(Nc3ccc4c(c3)Cc3cccc(-c5cc(N6CCOCC6)cc(=O)[nH]5)c3O4)CC2)c1 [Example 2-30-8, 6-(7-((1-(3-Methylphenethyl)piperidin-4-yl)amino)-9H-xanthen-4-yl)-4-morpholino pyridin-2 (1H)-one] as the compound, how does the IC50 read?
Its IC50 is 500 to 2000 nM.

Which IC50 does the source give for CCNc1cccc(CNc2ccc3c(c2)Cc2cccc(-c4cc(N5CCOCC5)cc(=O)[nH]4)c2O3)n1 [Example 2-6-2, 6-(7-(((6-(Ethylamino)pyridin-2-yl)methyl)amino)-9H-xanthen-4-yl)-4-morpholinopyridin-2(1H)-one] here?
Its IC50 is 100 to 500 nM.

How did the IC50 turn out when CC(Nc1ccc2c(c1)Cc1ccnc(-c3cc(N4CCOCC4)cc(=O)[nH]3)c1O2)c1cccc(F)n1 (stereo not drawn) [Example 2-41-13, 6-(7-((1-(6-Fluoropyridin-2-yl)ethyl)amino)-5H-chromeno[2,3-c]pyridin-1-yl]-4-morpholino pyridin-2(1H)-one] was run?
Its IC50 is 100 to 500 nM.

O=c1cc(N2CCOCC2)cc(-c2cccc3c2Oc2ccc(NCc4cnc5c(c4)OCO5)cc2C3)[nH]1 [Example 2-2-30, 6-(7-(([1,3]Dioxolo[4,5-b]pyridin-6-ylmethyl)amino)-9H-xanthen-4-yl)-4-morpholino pyridin-2(1H)-one] was tested. Which IC50 did it give?
The IC50 was 100 to 500 nM.

How did the IC50 turn out when O=c1cc(N2CCOCC2)cc(-c2cccc3c2Oc2ccc(NC4CCN(Cc5cnccn5)CC4)cc2C3)[nH]1 [Example 2-28-7, 4-Morpholino-6-(7-((1-(pyrazin-2-ylmethyl)piperidin-4-yl)amino)-9H-xanthen-4-yl)pyridin-2 (1H)-one] was run?
The IC50 was 500 to 2000 nM.

With O=c1cc(N2CCOCC2)cc(-c2cccc3c2Sc2ccc(NCCCc4cccnc4)cc2S3)[nH]1 [Example 1-12-27, 4-Morpholino-6-(7-((3-(pyridin-3-yl)propyl)amino)thianthren-1-yl)pyridin-2(1H)-one] as the compound, how does the IC50 read?
Its IC50 is 500 to 2000 nM.

With O=c1cc(N2CCOCC2)cc(-c2cccc3c2Oc2ccc(NC4CCN(Cc5ncccn5)CC4)cc2C3)[nH]1 [Example 2-28-3, 4-Morpholino-6-(7-((1-(pyrimidin-2-ylmethyl)piperidin-4-yl)amino)-9H-xanthen-4-yl)pyridin-2 (1H)-one] as the compound, how does the IC50 read?
Its IC50 is 500 to 2000 nM.

How did the IC50 turn out when CC(Nc1ccc2c(c1)Cc1cccc(-c3cc(N4CCOCC4)cc(=O)[nH]3)c1O2)c1cnccn1 (stereo not drawn) [Example 2-14-77, 4-Morpholino-6-(7-((1-(pyrazin-2-yl)ethyl)amino)-9H-xanthen-4-yl)pyridin-2 (1H)-one] was run?
The IC50 was 100 to 500 nM.

Which IC50 does the source give for COc1cccnc1CNc1ccc2c(c1)Cc1cccc(-c3cc(N4CCOCC4)cc(=O)[nH]3)c1O2 [Example 2-14-8, 6-(7-(((3-Methoxypyridin-2-yl)methyl)amino)-9H-xanthen-4-yl)-4-morpholino pyridin-2(1H)-one] here?
Its IC50 is 100 to 500 nM.

With COc1ccc(CCN2CCC(Nc3ccc4c(c3)Cc3cccc(-c5cc(N6CCOCC6)cc(=O)[nH]5)c3O4)CC2)cn1 [Example 2-28-38, 6-(7-((1-(2-(6-Methoxypyridin-3-yl)ethyl)piperidin-4-yl)amino)-9H-xanthen-4-yl)-4-morpholino pyridin-2(1H)-one] as the compound, how does the IC50 read?
Its IC50 is 100 to 500 nM.
